“Also recorded” adds a separate entry of the source. Read-outs that look alike come from different tables or passages of the source.
Columns and labels:
HIV-1 Bal = test: HIV infection of monocyte-derived macrophages (MDM) ex vivo, HIV gag mRNA by real time RT-PCR; format: cell-based
Procedure: Blood samples were collected from the antecubital vein and monocytes were isolated as described below.
For HIV infectivity experiments PBMC were isolated from freshly collected blood samples using Ficoll-Paque (GE Healthcare, Uppsala, Sweden) gradient. Monocytes were purified by adhesion as described [26, 27] and cultured in 48-well plates at a density of 0.25 × 10^6/0.5 ml/well in DMEM supplemented with 10 % FBS for 7 days before HIV-1 infection. Macrophages from each subject were exposed to four experimental conditions (none, 1, 5 and 10 µM of aprepitant). 7-day-cultured MDM were incubated with aprepitant for 2 h before infection with HIV-1 Bal (NIH AIDS Reagent Program), 5 ng/well based on p24 antigen assay, corresponding to a MOI of 0.02 determined using MAGI cells expressing CD4 and CCR5 (NIH AIDS Reagent Program). Cells were incubated with virus overnight, and then extensively washed to remove unbound virus. The culture medium and the aprepitant were replaced twice weekly. At day 7 post HIV infection, cellular RNA was extracted from the MDM for assessment of HIV gag mRNA expression using real time RT-PCR assays.
Total RNA was extracted from MDM cells using RNeasy kit (Qiagen), and the potential DNA contamination was eliminated by on-column DNase digestion as instructed by the manufacturer (Qiagen). Total RNA (1 µg) was reverse transcribed using AffinityScript QPCR cDNA Synthesis kit ([sequence], Cedar Creek, TX) with random primer as instructed by the manufacture. 1 µl of the resulting cDNA was used as a template for real-time PCR amplification. […] Corresponding fragments of assayed genes cloned in pGEM-T vector (Promega) were used to generate standard curves.
Following differentiation for 7 days MDM were infected with HIV Bal. Macrophages from each subject were exposed to all four experimental conditions as indicated (1, 5 and 10 μM concentrations of aprepitant). Control, HIV infected MDM were treated with aprepitant vehicle, 0.001 % DMSO. RNA was collected 7 days after infection and assayed for expression of HIV GAG by real time RT PCR using the GAPDH housekeeping gene for normalization. GAG expression in control (non-treated) cultures were designated as 100 %; *p < 0.0001 between all groups including control were obtained through one-way ANOVA with post-test analysis by Bonferroni’s Multiple Comparison Test indicating significant difference between all groups in pair wise comparison. b Aprepitant added to DMEM 10 % FBS media or MDM cultures at a concentration of 1 μM (0.53 μg/ml) on day 0 and measured on days 0, 1, 2, 3 and 7. Results are presented as mean ± SD for three independent experiments

[1] = Protein binding by ultrafiltration in human and rhesus macaque plasma and FBS; format: in vitro ADME; conditions: three experiments
Procedure: These experiments were conducted to assess the linkage between in vitro and in vivo exposure targets in order to more accurately project clinical dose requirements for aprepitant. Protein binding was assessed via ultrafiltration and detection of aprepitant in various biofluids was conducted via LC–MS/MS.
Ultrafiltration units (CorningR Spin-X UF; MWCO 10 K) and filtrate collection tubes were obtained from Corning (Tewksbury, MA). Control human plasma was obtained by centrifugation of blood obtained from CHOP blood bank. Stock solutions of aprepitant in methanol were added to human plasma (1 %, v/v) to provide plasma samples at a nominal concentration of 10 μg/mL. This was further diluted with human plasma to provide 5, 2 and 0.5 μg/mL solutions. Similarly, aprepitant at above four concentration were also prepared in 10 % FBS in DMEM or 10 % FBS in water. Samples were incubated at 37 °C for 30 min to ensure equilibrium was established. Following incubation, an aliquot of sample was removed for determination of the drug concentration post incubation. Triplicate 500 μL aliquots of the samples were added to the sample reservoir of the UF unit with filtrate collection tubes. All ultrafiltration units were centrifuged at 13,000 rpm (15,000×g) for 15 min at 4 °C. […] Internal standard solution (500 μL) was added to each sample analyzed by the validated LC–MS/MS method described above. […]

[2] = tested on: PD-1 expression on CD3+CD4+ cells; test: PD-1 expression on CD4+ T-cells in PBMC, flow cytometry; format: cell-based, human
Procedure: For cytokine and PD-1 assessment experiments freshly isolated peripheral blood mononuclear cell (PBMC) purchased from the Human Immunology Core Facility of The University of Pennsylvania School of Medicine (Philadelphia, PA) were cultured in RPMI medium supplemented with 10 % FBS overnight. Some cultures were treated with SP (10 µM) aprepitant (10 µM) or DMSO (0.001 %, vehicle for aprepitant). Cytokine concentrations were measured in supernatants using multiplex assay 24 h after SP/aprepitant treatment (see below). For PD-1 expression SP and aprepitant were added at day 0 and PD-1 expression was monitored daily for up to 8 days using flow cytometry.
Fig. 6 Aprepitant blocks SP induced PD-1 expression on CD4+ T-cells. PBMC were treated for 7 days with SP and aprepitant as indicated. PD-1 expression was measured by flow cytometry on CD3+CD4+ cells and expressed as percentage of PD-1 positive cells. a Results from representative experiment are shown. First two columns show gaiting strategy. […] Median (spread): control 14.7 (11.1), SP treated 38.4 (60.6), SP + aprepitant treated 7.8 (6.0) TEXT PRINTED IN THE PICTURE: (a) SP: PD1+ 67.1 | (a) SP + aprepitant: PD1+ 9.53 DOUBTS OF THE COPYIST ABOUT THIS PICTURE: SP + aprepitant, PD1+ 9.53: the sign after PD1 looks like '+' or '−' because it touches the gate line / SP + aprepitant, 9.53: small print, so the digits 9, 5 and 3 are not fully certain / The rows 'no staining' (PD1+ 0.079) and 'control' (PD1+ 11.4) were left out because they are not substances

pro-inflammatory markers = tested on: pro-inflammatory markers; design: method as in PMID 25915168; conditions: 375 mg daily, 2 weeks, HIV positive individuals; cited from earlier work

C[C@@H](O[C@H]1OCCN(Cc2n[nH]c(=O)[nH]2)[C@H]1c1ccc(F)cc1)c1cc(C(F)(F)F)cc(C(F)(F)F)c1 [aprepitant]
IC50 (HIV-1 Bal; Human immunodeficiency virus 1, BAL, Macrophage, read-out: free drug IC50 concentration): ~0.00265 µg/mL
IC50 (HIV-1 Bal; Human immunodeficiency virus 1, BAL, Macrophage, read-out: total IC50 concentration): 2.65 µg/mL
IC50 (HIV-1 Bal; Human immunodeficiency virus 1, Macrophage, 168 h, human MDM, HIV-1 Bal, gag mRNA day 7, total concentration in DMEM 10 % FBS, read-out: IC50 (ED50 in abstract) for inhibition of HIV infection in MDM): ~5 µM
IC90 (HIV-1 Bal; Human immunodeficiency virus 1, Macrophage, human MDM, HIV-1 Bal, total concentration, read-out: IC90 for inhibition of HIV infection in MDM): ~10 µM
binding to human and rhesus macaque plasma and FBS [1]: 99.79–99.95%
percentage of PD-1 positive CD4 cells, median (spread) ([2]; SP + aprepitant treated, 7 days, five experiments, control 14.7 (11.1)): 7.8 (6.0) %
effect on SP induced PD-1 expression ([2]; aprepitant with SP): blocked
levels of pro-inflammatory cytokines (G-CSF, MIP-1α, IL-6, IL-8, TNFα) (pro-inflammatory markers): reduced levels; also recorded: decrease; also recorded: significant reduction
sCD163, plasma SP and PD-1 expression on CD4 T-cells (pro-inflammatory markers): decrease; also recorded: reduction

From PMC4880976, “Pharmacologic rationale for the NK1R antagonist, aprepitant as adjunctive therapy in HIV” (Journal of Translational Medicine, 2016)
